Source: US5658905A, “Use of triazine compounds as anxiolytics” (priority 1993, dated 1997)
Where a name gives a salt, the structure may show the parent alone. Read-outs that look alike come from different tables or passages of the source.

Tests used:
[1] = Vogel conflict (punished drinking) model of anxiety
[2] = isethionate salt, EP-A-0 247 892, cited from earlier work
[3] = reported; models not named; cited from earlier work
[4] = tested on: release of excitatory amino acids, principally glutamate; conditions: at anticonvulsant brain concentrations; Leach et al 1986; Zhu and McGee 1990; cited from earlier work
[5] = Orientative acute oral toxicity (LD50) in rats; conditions: rat, in vivo, 50% survive 10 days after administration
Text: (§1) The present compounds are non-toxic at prophylactically and therapeutically effective doses. […] These are the dose levels at which 50% of the animals survive 10 days after administration of compound A.

[6] = tested on: mice; assay: Orientative acute oral toxicity (LD50) in mice; assay type: in vivo; conditions: 50% survive 10 days after administration
Text: as §1

[7] = tested on: voltage-sensitive sodium channels; conditions: Lang et al 1993; Lees and Leach 1993; cited from earlier work
[8] = Rattus norvegicus, po, 1 h, read-out: number of licks, percentage of vehicle control responding
[9] = Rattus norvegicus, sc, 20 min, read-out: number of licks, percentage of vehicle control responding
[10] = dose-response across tested doses, significance p<0.05, Mann-Whitney U-test
[11] = Rattus norvegicus, po, 1 h, read-out: number of licks, percentage of vehicle control responding, 20 mg/kg p.o., one hour before test, vehicle=100% (Table 3)
[12] = Rattus norvegicus, po, 1 h, read-out: number of licks, percentage of vehicle control responding, 40 mg/kg p.o., one hour before test, vehicle=100% (Table 3)
[13] = Rattus norvegicus, po, 1 h, read-out: number of licks, percentage of vehicle control responding, 80 mg/kg p.o., one hour before test, vehicle=100% (Table 3)
[14] = Rattus norvegicus, po, 1 h, read-out: number of licks, percentage of vehicle control responding, 160 mg/kg p.o., one hour before test, vehicle=100% (Table 3)
[15] = Rattus norvegicus, 1 h, read-out: number of licks, percentage of vehicle control responding

In the case of CCCC(CCC)C(=O)O [Sodium valproate], the response vs control in vivo at 40 mg/kg [1, 8] is reported as 79%, the response vs control in vivo at 80 mg/kg [1, 8] is reported as 108% and the response vs control in vivo at 160 mg/kg [1, 8] is reported as 151%. The response vs control in vivo at 320 mg/kg [1, 8] was 261%.

With CN1C(=O)CN=C(c2ccccc2)c2cc(Cl)ccc21 [Diazepam, 7-chloro-1,3-dihydro-1-methyl-5-phenyl-2H-1,4-benzodiazepin-2-one] the ataxia ([1]; 1.0 mg/kg s.c.) was “accompanied by ataxia”, the response vs control in vivo at 0.5 mg/kg [1, 9] was 162% and the response vs control in vivo at 1 mg/kg [1, 9] was 296%. For the same molecule, the “effect on punished responding (in words)” value [1, 10] was “dose-related increase in punished responding (PR) at 0.5 and 1.0 mg/kg. This effect was large and significant”.

With O=C1NC(=O)C(c2ccccc2)(c2ccccc2)N1 [Phenytoin sodium] the “effect on punished responding (in words)” value ([1]; 10 or 40 mg/kg p.o.) was “no effect on PR”, the response vs control in vivo at 10 mg/kg ([1]; Rattus norvegicus, po, 1 h, read-out: number of licks, percentage of vehicle control responding, 10.0 mg/kg p.o. (parent acid equivalent), one hour before test, vehicle=100% (Table 2)) was 121% and the response vs control in vivo at 20 mg/kg [1, 11] was 101%. The response vs control in vivo at 40 mg/kg ([1]; Rattus norvegicus, po, 1 h, read-out: number of licks, percentage of vehicle control responding, 40.0 mg/kg p.o. (parent acid equivalent), one hour before test, vehicle=100% (Table 2)) was 114%, the response vs control in vivo at 40 mg/kg [1, 12] was 135% and the response vs control in vivo at 80 mg/kg [1, 13] was 220%. It also gave a response vs control in vivo at 160 mg/kg [1, 14] of 173%.

With NC(=O)N1c2ccccc2C=Cc2ccccc21 [Carbamazepine] the “effect on punished responding (in words)” value ([1]; 5.0 mg/kg p.o.) was “no effect”, the “effect on punished responding (in words)” value ([1]; 20 mg/kg p.o.) was “non-significant increase in PR” and the response vs control in vivo at 5 mg/kg ([1]; Rattus norvegicus, po, 1 h, read-out: number of licks, percentage of vehicle control responding, 5.0 mg/kg p.o., one hour before test, vehicle=100% (Table 2)) was 87%. It also gave a response vs control in vivo at 10 mg/kg ([1]; Rattus norvegicus, po, 1 h, read-out: number of licks, percentage of vehicle control responding, 10 mg/kg p.o., one hour before test, vehicle=100% (Table 3)) of 154%, a response vs control in vivo at 20 mg/kg ([1]; Rattus norvegicus, po, 1 h, read-out: number of licks, percentage of vehicle control responding, 20.0 mg/kg p.o., one hour before test, vehicle=100% (Table 2)) of 161% and a response vs control in vivo at 20 mg/kg [1, 11] of 206%. For the same molecule, the response vs control in vivo at 40 mg/kg [1, 12] was 219%, the response vs control in vivo at 80 mg/kg [1, 13] was 309% and the “effect on punished responding (in words)” value [1, 10] was “dose-related, significant increase in punished responding”.

In the case of Nc1nnc(-c2cccc(Cl)c2Cl)c(N)n1 [Compound A isethionate, 3,5-diamino-6-(2,3-dichlorophenyl)-1,2,4-triazine isethionate], the solubility [2] is listed as “good solubility”, the solubility ([2]; listed as salt with isethionic acid) is listed as “particularly good solubility” and the other behavioural changes ([1]; 10, 20, 40 mg/kg base equivalent p.o.) is listed as “no other behavioural changes were observed”. It also gave a response vs control in vivo at 10 mg/kg [1, 15] of 92%, a response vs control in vivo at 20 mg/kg [1, 15] of 165% and a response vs control in vivo at 40 mg/kg [1, 15] of 208%. The “effect on punished responding (in words)” value [1, 10] was “dose-related increase in punished responding at 20 and 40 mg/kg, that at the latter dose being significant”.

CN1[C@@H]2CC[C@H]1C[C@@H](OC(=O)c1cc(Cl)cc(Cl)c1)C2 [Bemesetron] showed a response vs control in vivo at 0.0001 mg/kg [1, 8] of 89%, a response vs control in vivo at 0.001 mg/kg [1, 8] of 129% and a response vs control in vivo at 0.01 mg/kg [1, 8] of 156%. For the same molecule, the response vs control in vivo at 0.1 mg/kg [1, 8] was 116%, the “effect on punished responding (in words)” value [1, 10] was “lack of any significant anxiolytic effect” and the “anxiolytic effects in other animal models” value [3] was “reported to exhibit anxiolytic effects in other animal models”.

For Cc1nccn1CC1CCc2c(c3ccccc3n2C)C1=O (stereo not drawn) [Ondansetron hydrochloride], the response vs control in vivo at 0.0001 mg/kg ([1]; Rattus norvegicus, po, 1 h, read-out: number of licks, percentage of vehicle control responding, 0.1 μg/kg p.o., one hour before test, vehicle=100% (Table 3)) was 68%, the response vs control in vivo at 0.001 mg/kg ([1]; Rattus norvegicus, po, 1 h, read-out: number of licks, percentage of vehicle control responding, 1.0 μg/kg p.o., one hour before test, vehicle=100% (Table 3)) was 80% and the response vs control in vivo at 0.01 mg/kg ([1]; Rattus norvegicus, po, 1 h, read-out: number of licks, percentage of vehicle control responding, 10 μg/kg p.o., one hour before test, vehicle=100% (Table 3)) was 70%. The response vs control in vivo at 0.1 mg/kg ([1]; Rattus norvegicus, po, 1 h, read-out: number of licks, percentage of vehicle control responding, 100 μg/kg p.o., one hour before test, vehicle=100% (Table 3)) was 87%, the “effect on punished responding (in words)” value [1, 10] was “lack of any significant anxiolytic effect” and the “anxiolytic effects in other animal models” value [3] was “reported to exhibit anxiolytic effects in other animal models”.

For Nc1nnc(-c2cccc(Cl)c2Cl)c(N)n1 [Compound A, 3,5-Diamino-6-(2,3-dichlorophenyl)-1,2,4-triazine], the “inhibition of release of excitatory amino acids, principally glutamate” value [4] is listed as “inhibit the release of excitatory. amino acids, principally glutamate”, the LD50 at 240 h [5] is listed as 640 mg/kg and the “acute oral toxicity (LD50)” value [6] is listed as 250 mg/kg. The “block of voltage-sensitive sodium channels” value [7] was “use-dependent block of voltage-sensitive sodium channels”.

For CCC1(C)CC(=O)NC1=O (stereo not drawn) [Ethosuximide], the response vs control in vivo at 40 mg/kg [1, 12] was 64%, the response vs control in vivo at 80 mg/kg [1, 13] was 133% and the response vs control in vivo at 160 mg/kg [1, 14] was 61%. For the same molecule, the response vs control in vivo at 320 mg/kg ([1]; Rattus norvegicus, po, 1 h, read-out: number of licks, percentage of vehicle control responding, 320 mg/kg p.o., one hour before test, vehicle=100% (Table 3)) was 96%.
